Test results: the Kinase Knowledgebase extract (Sharma et al. 2016)
pIC50: −log10 of the molar value.

Target: PIK3CG (human) (UniProt P48736)
Assay: Assessment of PIK3CG Kinase Activity

PIK3CG (human), sequence (P48736 whole entry, looked up): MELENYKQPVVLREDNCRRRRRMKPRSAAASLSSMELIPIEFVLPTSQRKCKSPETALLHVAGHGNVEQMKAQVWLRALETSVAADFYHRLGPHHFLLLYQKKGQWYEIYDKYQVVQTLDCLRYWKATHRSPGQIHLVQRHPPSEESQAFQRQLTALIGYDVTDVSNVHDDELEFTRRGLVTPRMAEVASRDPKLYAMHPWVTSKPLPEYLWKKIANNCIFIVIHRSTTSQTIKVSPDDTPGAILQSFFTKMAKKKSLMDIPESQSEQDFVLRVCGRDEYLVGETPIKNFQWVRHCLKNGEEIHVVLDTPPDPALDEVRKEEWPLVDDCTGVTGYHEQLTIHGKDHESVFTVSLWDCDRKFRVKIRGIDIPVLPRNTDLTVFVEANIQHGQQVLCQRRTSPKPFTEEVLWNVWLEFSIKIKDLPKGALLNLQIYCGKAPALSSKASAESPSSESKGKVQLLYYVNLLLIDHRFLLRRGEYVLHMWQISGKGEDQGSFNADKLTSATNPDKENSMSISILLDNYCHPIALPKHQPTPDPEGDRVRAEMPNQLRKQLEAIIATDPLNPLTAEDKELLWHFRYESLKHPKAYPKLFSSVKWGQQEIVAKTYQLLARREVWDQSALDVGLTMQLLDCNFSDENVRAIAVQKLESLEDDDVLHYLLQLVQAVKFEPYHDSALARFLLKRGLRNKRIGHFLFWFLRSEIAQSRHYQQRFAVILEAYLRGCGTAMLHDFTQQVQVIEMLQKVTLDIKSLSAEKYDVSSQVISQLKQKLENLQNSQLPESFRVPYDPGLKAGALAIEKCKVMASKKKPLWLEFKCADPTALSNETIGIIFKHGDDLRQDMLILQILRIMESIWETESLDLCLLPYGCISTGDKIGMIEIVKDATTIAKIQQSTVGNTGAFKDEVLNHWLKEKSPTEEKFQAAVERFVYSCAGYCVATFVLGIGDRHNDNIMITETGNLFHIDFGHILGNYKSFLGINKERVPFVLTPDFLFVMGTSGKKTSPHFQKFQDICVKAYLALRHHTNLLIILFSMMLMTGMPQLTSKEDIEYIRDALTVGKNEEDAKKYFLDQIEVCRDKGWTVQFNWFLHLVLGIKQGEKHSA

**Q.** With CCc1csc(CCNC(=O)Nc2nc3c(s2)-c2c(c(-c4cccnc4)nn2C2CCN(C4CCCC4)CC2)CC3)n1 as the molecule, how does the pIC50 read?
**A.** The pIC50 was greater than 6.10.

**Q.** With COC(=O)N1CC[C@H](CNC(=O)Nc2nc3c(s2)-c2c(c(-c4cncnc4)nn2-c2ccccc2Cl)CC3)C1 as the molecule, how does the pIC50 read?
**A.** The pIC50 was greater than 6.10.

**Q.** With O=C(NC[C@H]1CCN(C(=O)N2CCCC2)C1)Nc1nc2c(s1)-c1c(c(-c3ccccc3)nn1-c1cccc(Cl)c1)CC2 as the molecule, how does the pIC50 read?
**A.** Its pIC50 is greater than 6.10.

**Q.** With CCc1cnc(CCNC(=O)Nc2nc3c(s2)-c2c(c(-c4cccnc4)nn2-c2ccccc2Cl)CC3)o1 as the molecule, how does the pIC50 read?
**A.** Its pIC50 is greater than 6.10.

**Q.** How did the pIC50 turn out when Cn1cc(CNC(=O)Nc2nc3c(s2)-c2c(c(-c4cccnc4)nn2C2CCN(C4CCCC4)CC2)CC3)cn1 was run?
**A.** The pIC50 was greater than 6.10.

**Q.** CNC(=O)c1cccc(CNC(=O)Nc2nc3c(s2)-c2c(c(-c4cccnc4)nn2C2CCN(C)CC2)CC3)c1 was tested. Which pIC50 did it give?
**A.** Its pIC50 is greater than 6.10.

**Q.** How did the pIC50 turn out when O=C(NC[C@H]1CCCN1C(=O)N1CCCCC1)Nc1nc2c(s1)-c1c(c(-c3cncnc3)nn1-c1ccccc1Cl)CC2 was run?
**A.** The pIC50 was greater than 6.10.

**Q.** With CN(C)C(=O)[C@@H]1CCCC[C@H]1NC(=O)Nc1nc2c(s1)-c1c(c(-c3ccccc3)nn1-c1ccccc1Cl)CC2 as the molecule, how does the pIC50 read?
**A.** The pIC50 was greater than 6.10.

**Q.** C[C@@H](NC(=O)Nc1nc2c(s1)-c1c(c(-c3ccccc3)nn1-c1ccccc1Cl)CC2)C(=O)N1CCCCC1 was tested. Which pIC50 did it give?
**A.** Its pIC50 is greater than 6.10.

**Q.** With CN(C)C(=O)CCNC(=O)Nc1nc2c(s1)-c1c(c(C3CC3)nn1-c1ccccc1Cl)CC2 as the molecule, how does the pIC50 read?
**A.** Its pIC50 is greater than 6.10.

**Q.** With CCNC(=O)Nc1nc2c(s1)-c1c(c(-c3cccnc3)nn1-c1ccc(S(N)(=O)=O)cc1Cl)CC2 as the molecule, how does the pIC50 read?
**A.** The pIC50 was greater than 6.10.

**Q.** With NC(=O)N1Cc2ccc(CNC(=O)Nc3nc4c(s3)-c3c(c(-c5cccnc5)nn3-c3ccccc3Cl)CC4)cc2C1 as the molecule, how does the pIC50 read?
**A.** The pIC50 was greater than 6.10.

**Q.** CN(C)C(=O)N1CC[C@H](CNC(=O)Nc2nc3c(s2)-c2c(c(-c4ccccc4)nn2-c2cccc(Cl)c2)CC3)C1 was tested. Which pIC50 did it give?
**A.** Its pIC50 is greater than 6.10.

**Q.** O=C(NCCc1ccc2c(c1)OCCO2)Nc1nc2c(s1)-c1c(c(-c3cncnc3)nn1-c1ccccc1Cl)CC2 was tested. Which pIC50 did it give?
**A.** Its pIC50 is greater than 6.10.

**Q.** CN1CCC(O)C2(CCCN(C(=O)Nc3nc4c(s3)-c3c(c(-c5cccnc5)nn3-c3ccccc3Cl)CC4)C2)C1 (stereo not given) was tested. Which pIC50 did it give?
**A.** The pIC50 was greater than 6.10.

**Q.** How did the pIC50 turn out when CCn1cnc(CCNC(=O)Nc2nc3c(s2)-c2c(c(-c4cncnc4)nn2-c2ccccc2Cl)CC3)c1 was run?
**A.** The pIC50 was greater than 6.10.

**Q.** CC(C)(C)OC(=O)CCNC(=O)Nc1nc2c(s1)-c1c(c(-c3ccccc3)nn1-c1ccccc1Cl)CC2 was tested. Which pIC50 did it give?
**A.** The pIC50 was greater than 6.10.

**Q.** CNC(=O)Nc1nc2c(s1)-c1c(c(-c3cccnc3)nn1-c1ccccc1Cl)CC2 was tested. Which pIC50 did it give?
**A.** Its pIC50 is greater than 6.10.

**Q.** COc1cccc(CNC(=O)Nc2nc3c(s2)-c2c(c(-c4cncnc4)nn2-c2ccccc2Cl)CC3)c1 was tested. Which pIC50 did it give?
**A.** The pIC50 was greater than 6.10.

**Q.** With O=C1CC[C@H](NC(=O)Nc2nc3c(s2)-c2c(c(-c4cccnc4)nn2-c2ccccc2Cl)CC3)CN1 as the molecule, how does the pIC50 read?
**A.** The pIC50 was greater than 6.10.

**Q.** With CCN(CC)C(=O)N1CC[C@H](CNC(=O)Nc2nc3c(s2)-c2c(c(-c4cncnc4)nn2-c2ccccc2Cl)CC3)C1 as the molecule, how does the pIC50 read?
**A.** Its pIC50 is greater than 6.10.

**Q.** With CCn1cnc(CCNC(=O)Nc2nc3c(s2)-c2c(c(-c4ccccc4)nn2-c2ccccc2Cl)CC3)c1 as the molecule, how does the pIC50 read?
**A.** The pIC50 was greater than 6.10.

**Q.** How did the pIC50 turn out when Cc1nc[nH]c1-c1cccc(CNC(=O)Nc2nc3c(s2)-c2c(c(-c4cccnc4)nn2-c2ccccc2Cl)CC3)c1 was run?
**A.** The pIC50 was greater than 6.10.

**Q.** How did the pIC50 turn out when O=C(NCCNS(=O)(=O)C(F)(F)F)Nc1nc2c(s1)-c1c(c(-c3ccccc3)nn1-c1ccccc1Cl)CC2 was run?
**A.** Its pIC50 is greater than 6.10.

**Q.** O=C(NCC1CCCCN1)Nc1nc2c(s1)-c1c(c(-c3cncnc3)nn1-c1ccccc1Cl)CC2 (stereo not given) was tested. Which pIC50 did it give?
**A.** Its pIC50 is greater than 6.10.

**Q.** How did the pIC50 turn out when CCn1cnc(CCNC(=O)Nc2nc3c(s2)-c2c(c(-c4cccnc4)nn2-c2ccccc2Cl)CC3)c1 was run?
**A.** The pIC50 was greater than 6.10.

**Q.** CN1CCC(n2nc(-c3cncnc3)c3c2-c2sc(NC(=O)NC[C@H]4CCCN4C(=O)N4CCCC4)nc2CC3)CC1 was tested. Which pIC50 did it give?
**A.** Its pIC50 is greater than 6.10.

**Q.** CCc1cccc(CNC(=O)Nc2nc3c(s2)-c2c(c(-c4cccnc4)nn2C2CCN(C)CC2)CC3)c1 was tested. Which pIC50 did it give?
**A.** The pIC50 was greater than 6.10.

**Q.** CC(C)c1noc(CCNC(=O)Nc2nc3c(s2)-c2c(c(C4CC4)nn2-c2ccccc2Cl)CC3)n1 was tested. Which pIC50 did it give?
**A.** The pIC50 was greater than 6.10.

**Q.** With CC(C)(C)OC(=O)NC1CCN(C(=O)Nc2nc3c(s2)-c2c(c(-c4cccnc4)nn2-c2ccccc2Cl)CC3)C1 (stereo not given) as the molecule, how does the pIC50 read?
**A.** The pIC50 was greater than 6.10.

**Q.** How did the pIC50 turn out when O=C(NCCCC(=O)N1CCOCC1)Nc1nc2c(s1)-c1c(c(-c3ccccc3)nn1-c1ccccc1Cl)CC2 was run?
**A.** The pIC50 was greater than 6.10.

**Q.** How did the pIC50 turn out when CC(C)(C)OC(=O)N1CCCC1CNC(=O)Nc1nc2c(s1)-c1c(c(Nc3ccccn3)nn1-c1ccccc1)CC2 (stereo not given) was run?
**A.** The pIC50 was greater than 6.10.

**Q.** With CC(C)(C)OC(=O)N1CC[C@@H](CNC(=O)Nc2nc3c(s2)-c2c(c(-c4cncnc4)nn2-c2ccccc2Cl)CC3)C1 as the molecule, how does the pIC50 read?
**A.** The pIC50 was greater than 6.10.

**Q.** NC(=O)Nc1nc2c(s1)-c1c(c(-c3cncnc3)nn1-c1ccccc1F)CC2 was tested. Which pIC50 did it give?
**A.** The pIC50 was greater than 6.10.

**Q.** CN(C)CCOc1cccc(CNC(=O)Nc2nc3c(s2)-c2c(c(-c4cncnc4)nn2-c2ccccc2Cl)CC3)c1 was tested. Which pIC50 did it give?
**A.** The pIC50 was greater than 6.10.

**Q.** How did the pIC50 turn out when CC(C)(C)OC(=O)N1CCC[C@@H]1CNC(=O)Nc1nc2c(s1)-c1c(c(-c3cccnc3)nn1-c1ccccc1Cl)CC2 was run?
**A.** Its pIC50 is greater than 6.10.

**Q.** With CCN1CCC[C@@H]1CNC(=O)Nc1nc2c(s1)-c1c(c(-c3cccnc3)nn1-c1ccccc1Cl)CC2 as the molecule, how does the pIC50 read?
**A.** Its pIC50 is greater than 6.10.

**Q.** CN1CCN(CCNC(=O)Nc2nc3c(s2)-c2c(c(-c4cncnc4)nn2-c2ccccc2Cl)CC3)CC1 was tested. Which pIC50 did it give?
**A.** The pIC50 was greater than 6.10.

**Q.** How did the pIC50 turn out when CN(C)C(=O)CCNC(=O)Nc1nc2c(s1)-c1c(c(-c3ccccc3)nn1-c1ccccc1Cl)CC2 was run?
**A.** Its pIC50 is greater than 6.10.

**Q.** How did the pIC50 turn out when O=C(NCCc1cccc(N2CCNC2=O)c1)Nc1nc2c(s1)-c1c(c(-c3cncnc3)nn1-c1ccccc1Cl)CC2 was run?
**A.** Its pIC50 is greater than 6.10.
